Test results reported in patent publication US20100197789A1, “ANTI-OBESITY AGENT AND USE THEREOF” (National University Corporation Nagoya University, priority 2006, published 2010).

What was measured:
db/db mice [1] = assay: Rectal temperature, oxygen consumption and motor activity, db/db mice; assay type: in vivo, mouse; details: enantiomer 1.1 mg/dl in drinking water for 5 weeks, measured at 20 o'clock for 3 days
Procedure: (§1) 5 week-old male C57BL/KsJ-db/db mice (db/db mice: body weight 19 to 25 g, Japan SLC, Inc.) were purchased and individually fed in tip cages. For the db/db mice, normal pellet diet (CE-2) was administered under free water intake and free food intake. A body weight and a food intake amount over 24 hours were measured everyday from the start of feeding. On day 3 after the start of feeding, blood was taken from an orbit after 6 hour-fasting and a blood glucose level and a blood insulin concentration were measured. The db/db mice were divided into three groups (10 mice per each group) so that a body weight, a 24 hour-food intake amount, a blood glucose level, and a blood insulin concentration were equal, and defined to be a control group, an R-baclofen treated group, and an S-baclofen treated group. […] After division into the groups, from day 5 after the start of feeding, R-baclofen and S-baclofen were dissolved in drinking water and 5 week-continuous oral administration was started. Both of R-baclofen and S-baclofen were dissolved in drinking water at a concentration of 1.1 mg/dl used in the low concentration treated group in the experiment of baclofen racemic mixture administration. A food intake amount and a body weight were measured over time, and a rectal temperature was measured 5 weeks after the start of the administration. Blood was taken after the 5-week administration of baclofen, and the db/db mice were sacrificed by cervical luxation.
R-baclofen and S-baclofen were administered to db/db/mice and (±)-baclofen was administered to db/^+m mice respectively for 5 weeks, and rectal temperatures were then continuously measured for 3 days at 20 o'clock immediately before the dark period when feed intake was started in the mice. The method of measuring rectal temperatures was as follows. That is, the rectal temperatures were measured by using a digital thermistor (manufactured by NATSUME SEISAKUSHO CO., LTD.).
(±)-baclofen was orally administered to db/db mice and DIO mice for 5 weeks and rectal temperatures were measured 5 weeks after the start of the administration, and oxygen consumptions and motor activity were measured by using a small animal metabolism measuring system (model MK-5000: Muromachi Kikai Co., Ltd.).

db/db mice [2] = assay: Food intake amount and body weight, 5 week-continuous oral administration in drinking water, db/db mice; assay type: in vivo, mouse; details: enantiomer 1.1 mg/dl in drinking water, oral, 5 weeks; for body weight increase / food intake amount: vs control
Procedure: 5 week-old male C57BL/KsJ-db/db mice (db/db mice: body weight 19 to 25 g, Japan SLC, Inc.) were purchased and individually fed in tip cages. For the db/db mice, normal pellet diet (CE-2) was administered under free water intake and free food intake. A body weight and a food intake amount over 24 hours were measured every day from the start of feeding. On day 3 after the start of feeding, blood was taken from an orbit after 6 hour-fasting and a blood glucose level and a blood insulin concentration were measured. The db/db mice were divided into three groups (10 mice per each group) so that a body weight, a 24 hour-food intake amount, a blood glucose level, and a blood insulin concentration were equal, and defined to be a control group, a low concentration baclofen treated group, and a high concentration baclofen treated group. After division into the groups, from day 5 after the start of feeding, (±)-baclofen was dissolved in drinking water and 5 week-continuous oral administration to the baclofen treated groups was started. (±)-baclofen was dissolved in drinking water at a concentration of 1.1 mg/dl in the low concentration treated group and at a concentration of 2.7 mg/dl in the high concentration treated group. A food intake amount and a body weight were measured over time during the period of 5 week-administration of (±)-baclofen, blood was taken after the end of the 5-week administration, and the db/db mice were sacrificed by cervical luxation. Brains, epididymal white adipose tissues, subcutaneous white adipose tissues and brown adipose tissues were surgically removed. The brains and brown adipose tissues were frozen in dry ice and liquid nitrogen immediately after the removal and then preserved at −80° C. The epididymal white adipose tissues and subcutaneous white adipose tissues were measured in weights, and then fixed in 4% formaldehyde and preserved at 4° C.
as §1, with “measured.” for “measured. The db/db mice were divided into three groups (10 mice per each group) so that a body weight, a 24 hour-food intake amount, a blood glucose level, and a blood insulin concentration were equal, and defined to be a control group, an R-baclofen treated group, and an S-baclofen treated group.”, “Both of R-baclofen and S-baclofen were dissolved in drinking water at a concentration of 1.1 mg/dl used in the low concentration treated group in the experiment of baclofen racemic mixture administration.” left out
5 week-old male C57BL/KsJ-db/db mice (db/db mice: body weight 19 to 25 g, Japan SLC, Inc.) were purchased and individually fed in tip cages. Normal pellet diet (CE-2) was administered to the db/db mice under free water intake and free food intake. A body weight and a food intake amount over 24 hours were measured every day from the start of feeding. On day 3 after the start of feeding, blood was taken from an orbit after 6 hour-fasting, and a blood glucose level and a blood insulin concentration were measured. The db/db mice were divided into five groups (10 mice per each group) so that a body weight, a 24 hour-food intake amount, a blood glucose level, and a blood insulin concentration were equal, and defined to be a control group and baclofen treated groups. (±)-baclofen was dissolved in drinking water at respective concentrations of 4×10^−6 M, 10×10^−6 M, 40×10^−6 M, and 100×10^−6 M, and continuously orally administered to the baclofen treated groups for 5 weeks. A food intake amount, a body weight and a water-drinking amount were measured over time during the period of 5 week-administration of (±)-baclofen. […]

| Structure (SMILES) | rectal temperature (db/db mice [1]) | time after start of administration from which body weight increase suppression was significant (db/db mice [2]) | time after start of administration from which food intake suppression was significant (db/db mice [2]) | body weight increase (db/db mice [2]) | food intake amount (db/db mice [2]) |
| --- | --- | --- | --- | --- | --- |
| Cl.NC[C@@H](CC(=O)O)c1ccc(Cl)cc1 [S-baclofen, S(−)-Baclofen hydrochloride] | significantly increased | 5 weeks | 5 weeks | significant suppression | significant suppression |
| Cl.NC[C@H](CC(=O)O)c1ccc(Cl)cc1 [R-baclofen, R(+)-Baclofen hydrochloride] | significantly increased | 2 weeks | 2 weeks | significantly suppressed | significantly suppressed |
